pIC50: −log10 of the molar value.
These molecules were tested against HIV-2 reverse transcriptase (Human immunodeficiency virus 2) (assay: Evaluated for inhibition of HIV-2 reverse transcriptase).
A pIC50 of 5.74 was found for `O=C(CCCCC(=O)Nc1ccc(Cl)cc1C(=O)O)Nc1ccc(Cl)cc1C(=O)O` [2-({6-[(2-carboxy-4-chlorophenyl)amino]-6-oxohexanoyl}amino)-5-chlorobenzoic acid] in this work. A pIC50 of 5.37 was found for `COc1ccc(NC(=O)CCCCC(=O)Nc2ccc(OC)cc2C(=O)O)c(C(=O)O)c1` [2-[4-(2-carboxy-4-methoxyphenylcarbamoyl)butylcarboxamido]-5-methoxybenzoic acid] in this work. A pIC50 of 5.16 was found for `CSc1ccc(NC(=O)CCCCC(=O)Nc2ccc(SC)cc2C(=O)O)c(C(=O)O)c1` [2-[4-(2-carboxy-4-methylsulfanylphenylcarbamoyl)butylcarboxamido]-5-methylsulfanylbenzoic acid] in this work. A pIC50 of 5.02 was found for `O=C(CCCC(=O)Nc1ccc(Cl)cc1C(=O)O)Nc1ccc(Cl)cc1C(=O)O` [2-({5-[(2-carboxy-4-chlorophenyl)amino]-5-oxopentanoyl}amino)-5-chlorobenzoic acid] in this work. A pIC50 of 5.77 was found for `O=C(CCCCC(=O)Nc1ccc(Br)cc1C(=O)O)Nc1ccc(Br)cc1C(=O)O` [5-bromo-2-({6-[(4-bromo-2-carboxyphenyl)amino]-6-oxohexanoyl}amino)benzoic acid] in this work.

The molecules below were run against HIV-2 reverse transcriptase (Human immunodeficiency virus 2) (assay: Compound was evaluated for inhibition of HIV-2 reverse transcriptase using rC.dG and [3H]-dGTP as substrates at 100 ug/mL).
A pIC50 of 5.13 was found for `O=C(CCCCCCC(=O)Nc1ccc(Br)cc1C(=O)O)Nc1ccc(Br)cc1C(=O)O` [5-bromo-2-[6-(4-bromo-2-carboxyphenylcarbamoyl)hexylcarboxamido]benzoic acid] in this work.

Molecular target: HIV-2 reverse transcriptase (Human immunodeficiency virus 2)
Assay: as above
Remark: another data set of the same source
A pIC50 of 4.49 was found for `O=C(CCCCC(=O)Nc1ccc(Br)cc1C(=O)O)Nc1ccc(Br)cc1` [5-Bromo-2-[5-(4-bromo-phenylcarbamoyl)-pentanoylamino]-benzoic acid] in this work. A pIC50 of 5.26 was found for `O=C(Nc1ccc(Br)cc1C(=O)O)c1ccc(C(=O)Nc2ccc(Br)cc2C(=O)O)nc1` [5-bromo-2-{[(5-{[(4-bromo-2-carboxyphenyl)amino]carbonyl}pyridin-2-yl)carbonyl]amino}benzoic acid] in this work. A pIC50 of 5.04 was found for `Cc1ccc(NC(=O)CCCCC(=O)Nc2ccc(C)cc2C(=O)O)c(C(=O)O)c1` [2-[4-(2-carboxy-4-methylphenylcarbamoyl)butylcarboxamido]-5-methylbenzoic acid] in this work. A pIC50 of 5.05 was found for `O=C(CCCCC(=O)Nc1ccccc1C(=O)O)Nc1ccccc1C(=O)O` [2-({6-[(2-carboxyphenyl)amino]-6-oxohexanoyl}amino)benzoic acid] in this work.

From BindingDB's records for doi:10.1016/s0960-894x(98)00214-5 (Glaxowellcome Medicines Research Center, 1999)
